One data set concerns the target T1, GR (Homo sapiens, UniProt P04150).
T1 construct: expressed in transfected cells; host or cells: CHO-K1
T1 sequence (P04150 1-777): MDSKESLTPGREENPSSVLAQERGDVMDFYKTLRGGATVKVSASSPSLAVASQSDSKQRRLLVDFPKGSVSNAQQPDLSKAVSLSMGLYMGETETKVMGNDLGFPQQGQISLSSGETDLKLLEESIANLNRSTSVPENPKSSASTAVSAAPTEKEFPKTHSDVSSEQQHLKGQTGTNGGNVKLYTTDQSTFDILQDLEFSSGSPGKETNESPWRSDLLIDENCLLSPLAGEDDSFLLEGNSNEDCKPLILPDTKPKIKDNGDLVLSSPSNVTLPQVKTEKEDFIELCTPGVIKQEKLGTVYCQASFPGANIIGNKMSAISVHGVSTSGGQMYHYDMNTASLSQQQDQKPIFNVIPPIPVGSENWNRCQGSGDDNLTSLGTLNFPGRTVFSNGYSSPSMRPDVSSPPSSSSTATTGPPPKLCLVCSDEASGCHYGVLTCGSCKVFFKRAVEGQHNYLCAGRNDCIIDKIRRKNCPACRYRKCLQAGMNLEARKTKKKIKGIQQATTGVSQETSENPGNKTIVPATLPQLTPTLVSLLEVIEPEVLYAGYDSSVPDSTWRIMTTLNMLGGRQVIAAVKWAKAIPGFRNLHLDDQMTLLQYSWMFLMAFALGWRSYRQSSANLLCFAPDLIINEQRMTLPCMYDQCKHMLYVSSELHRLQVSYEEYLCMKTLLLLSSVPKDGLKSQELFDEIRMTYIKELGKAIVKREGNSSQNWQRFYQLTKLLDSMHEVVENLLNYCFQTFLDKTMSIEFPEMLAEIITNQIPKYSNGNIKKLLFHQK
Briefly: In Vitro GR Luciferase Reporter Assay (antagonist mode, CHO-K1-GR-MMTV-Luc reporter cells). The format is cell-based. The following applies: antagonist mode, 10 nM Dexamethasone. The method in brief: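 CHO-K1-GR-MMTV-Luc cells in phenol red-free DMEM with 10% CSS, stimulated with 10 nM dexamethasone (final) and treated with 8-point 1:5 compound dilutions for about 18-24 h at 37° C. Luciferase measured by OneGlo luminescence; IC50 derived for inhibition of GR activity.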
In general terms: Reporter assays use an easily measured gene product as a stand-in for the process of interest.

The next data set deals with T2, CYP2C8 (Homo sapiens, UniProt P10632).
T2 construct: Pooled human microsomes were obtained from Sekisui XenoTech, KS; tissue Sekisui XenoTech, KS; host or cells: pooled human liver microsomes
T2 sequence (P10632 1-490): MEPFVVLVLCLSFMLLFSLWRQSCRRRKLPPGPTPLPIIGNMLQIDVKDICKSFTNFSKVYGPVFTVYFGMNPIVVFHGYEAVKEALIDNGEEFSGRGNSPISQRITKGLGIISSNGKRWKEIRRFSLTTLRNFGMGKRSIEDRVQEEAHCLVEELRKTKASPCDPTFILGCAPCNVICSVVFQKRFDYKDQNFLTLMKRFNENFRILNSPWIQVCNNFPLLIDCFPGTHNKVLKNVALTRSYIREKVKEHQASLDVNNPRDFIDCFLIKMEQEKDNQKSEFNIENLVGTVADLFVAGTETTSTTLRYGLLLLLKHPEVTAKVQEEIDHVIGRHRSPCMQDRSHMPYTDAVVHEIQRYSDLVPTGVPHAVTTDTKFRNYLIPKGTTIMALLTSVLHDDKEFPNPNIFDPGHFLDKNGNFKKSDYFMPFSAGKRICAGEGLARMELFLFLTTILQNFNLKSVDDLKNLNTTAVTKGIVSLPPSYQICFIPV
Briefly: CYP Inhibition Assay (CYP2C8, human liver microsomes, paclitaxel substrate). The following applies: pH 7.4; pooled human liver microsomes 0.1 mg/mL, probe substrate paclitaxel. The format is in vitro ADME. The method in brief: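 Pooled human liver microsomes (0.1 mg/mL) in 50 mM potassium phosphate pH 7.4 with compound, started with 1 mM NADPH, 5 min at 37° C, duplicate.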
(Liver microsomes are vesicles of endoplasmic reticulum, rich in cytochrome P450 enzymes.)

This passage reports IC50 and inhibition results from patent publication US20210122730A1, “GLUCOCORTICOID RECEPTOR MODULATORS” (ORIC Pharmaceuticals, Inc., priority 2017, published 2021).

What is called IC50 is the midpoint of a concentration-inhibition curve. High values mean weaker potency in that assay, low ones greater potency in that assay. As usually defined, the inhibition is how much of the control response was suppressed. Higher therefore signals a strong effect.

Consider `Cn1cnc(S(=O)(=O)N(CC(F)F)[C@H]2CCC3=Cc4c(cnn4-c4ccc(F)cc4)C[C@]3(C(=O)c3ncc(C(F)(F)F)s3)C2)n1` [Example 331, N-(2,2-difluoroethyl)-N-((4aS,6S)-1-(4-fluorophenyl)-4a-(5-(trifluoromethyl)thiazole-2-carbonyl)-4,4a,5,6,7,8-hexahydro-1H-benzo[f]indazol-6-yl)-1-methyl-1H-1,2,4-triazole-3-sulfonamide], for which the IC50 against GR is at most 100 nM. On CYP2C8, the inhibition at 5 min was at most 25%.
The compound `Cn1cnc(S(=O)(=O)N(C2CC(F)(F)C2)[C@H]2CCC3=Cc4c(cnn4-c4ccc(F)cc4)C[C@]3(C(=O)c3ncc(C(F)(F)F)s3)C2)c1` [Example 332, N-(3,3-difluorocyclobutyl)-N-((4aS,6S)-1-(4-fluorophenyl)-4a-(5-(trifluoromethyl)thiazole-2-carbonyl)-4,4a,5,6,7,8-hexahydro-1H-benzo[f]indazol-6-yl)-1-methyl-1H-imidazole-4-sulfonamide] came in with an IC50 at GR of at most 100 nM. Moreover, the inhibition at 5 min at CYP2C8 is at most 25%.
For `O=C(c1ncc(C(F)(F)F)s1)[C@]12Cc3cnn(-c4ccc(F)cc4)c3C=C1CC[C@H](N(C1CC1)S(=O)(=O)c1ccc(Cl)cn1)C2` [Example 333, 5-chloro-N-cyclopropyl-N-((4aS,6S)-1-(4-fluorophenyl)-4a-(5-(trifluoromethyl)thiazole-2-carbonyl)-4,4a,5,6,7,8-hexahydro-1H-benzo[f]indazol-6-yl)pyridine-2-sulfonamide] the same measures were at most 100 nM and at most 25%.
The compound `O=C(c1cc(C(F)(F)F)ccn1)[C@]12Cc3cnn(-c4ccc(F)cc4)c3C=C1CC[C@H](N(C1CC1)S(=O)(=O)c1cncc(Cl)c1)C2` [Example 334, 5-chloro-N-cyclopropyl-N-((4aS,6S)-1-(4-fluorophenyl)-4a-(4-(trifluoromethyl)picolinoyl)-4,4a,5,6,7,8-hexahydro-1H-benzo[f]indazol-6-yl)pyridine-3-sulfonamide] had an IC50 at GR of at most 100 nM. Also, on CYP2C8, the inhibition at 5 min is 50 to 75%.
`Cn1cnc(S(=O)(=O)N(C2CC(F)(F)C2)[C@H]2CCC3=Cc4c(cnn4-c4ccc(F)cc4)C[C@]3(C(=O)c3cc(F)ccn3)C2)c1` [Example 335, N-(3,3-difluorocyclobutyl)-N-((4aS,6S)-1-(4-fluorophenyl)-4a-(4-fluoropicolinoyl)-4,4a,5,6,7,8-hexahydro-1H-benzo[f]indazol-6-yl)-1-methyl-1H-imidazole-4-sulfonamide] registered a half-maximal inhibitory concentration (IC50) against GR of at most 100 nM. In addition, at CYP2C8, the inhibition at 5 min is at most 25%.
At GR, `Cn1ccc(S(=O)(=O)N(CC(F)F)[C@H]2CCC3=Cc4c(cnn4-c4ccc(F)cc4)C[C@]3(C(=O)c3ncc(C(F)(F)F)s3)C2)n1` [Example 337, N-(2,2-difluoroethyl)-N-((4aS,6S)-1-(4-fluorophenyl)-4a-(5-(trifluoromethyl)thiazole-2-carbonyl)-4,4a,5,6,7,8-hexahydro-1H-benzo[f]indazol-6-yl)-1-methyl-1H-pyrazole-3-sulfonamide] showed a concentration for half-maximal inhibition (IC50) of at most 100 nM. This compound also yielded an inhibition at 5 min against CYP2C8 of 50 to 75%.
`Cn1ccc(S(=O)(=O)N(CC(F)F)[C@H]2CCC3=Cc4c(cnn4-c4ccc(F)cc4)C[C@]3(C(=O)c3cc(F)ccn3)C2)n1` [Example 338, N-(2,2-difluoroethyl)-N-((4aS,6S)-1-(4-fluorophenyl)-4a-(4-fluoropicolinoyl)-4,4a,5,6,7,8-hexahydro-1H-benzo[f]indazol-6-yl)-1-methyl-1H-pyrazole-3-sulfonamide] came in with an IC50 at GR of at most 100 nM. On CYP2C8, this compound showed an inhibition at 5 min of 75 to 90%.
Consider `Cn1cnc(S(=O)(=O)N(C2CC(F)(F)C2)[C@H]2CCC3=Cc4c(cnn4-c4ccc(F)cc4)C[C@]3(C(=O)c3cc(Cl)ccn3)C2)c1` [Example 339, N-((4aS,6S)-4a-(4-chloropicolinoyl)-1-(4-fluorophenyl)-4,4a,5,6,7,8-hexahydro-1H-benzo[f]indazol-6-yl)-N-(3,3-difluorocyclobutyl)-1-methyl-1H-imidazole-4-sulfonamide], for which the IC50 on GR was at most 100 nM. Also, the inhibition at 5 min at CYP2C8 fell in the range of 25 to 50%.
